We go through 13 molecules from ChEMBL document CHEMBL5390311, “MAIP: An Open-Source Tool to Enrich High-Throughput Screening Output and Identify Novel, Druglike Molecules with Antimalarial Activity” (ACS Med Chem Lett, 2023).

SMILES strings stand for the structures. Converted amounts (≈) assume the structure as drawn.

As usually defined, the logP is a log measure of how a compound divides between an organic and an aqueous phase.

The subject of series [1] is Plasmodium falciparum. The series is described as follows: Antimalarial activity against Plasmodium falciparum 3D7 assessed as reduction in parasite growth. The format is functional, organism-based.
The test system of series [2] is Plasmodium falciparum. The series is described as follows: Antimalarial activity against Plasmodium falciparum NF54 assessed as parasite growth inhibition at 2 uM relative to control. The format is functional. The settings on record: read-out: GI.
The nature of series [3]: Octanol/water partition coefficient, logP of the compound. The format is physicochemical.
Series [4] in a line: Kinetic solubility of compound in 1-Octanol/PBS at pH 7.4 at 200 uM incubated for 2 hrs by shake flask method. The settings on record: read-out: Kinetic_solubility. It is filed as physicochemical.

On to `Oc1cc(CN2CCC(O)(Cn3ccnc3)CC2)nc2c(Cl)cccc12`, for which, in the series on Plasmodium falciparum [1], the XC50 is 882 nM. With `OC1(CCCNC2CCN(C3CC3)C(c3ccccc3)C2)CCC1` (stereo unspecified), the inhibition of growth at 2 µM in the series on Plasmodium falciparum [2] is -8%. Same read-out and setting: the figure for `COc1ccc(CN2CCN(c3ccncc3C)CC2)cc1Cn1cccn1` is -15%. `COc1c(C2CCN(CCN3CCC(CNC(=O)c4ccc(-c5ccc(C#N)cc5)cc4)CC3)CC2)ccc2c1CCCC2`: in the series on Plasmodium falciparum [1], the XC50 worked out at 445 nM. Consider `COc1ccc(-c2cncc(C(=O)NCC3CCN(CCN(C)C)CC3)c2)cc1`, for which the logP in series [3] (read-out: logP) worked out at 2.8. On the same count and under the same terms, the figure for `Cc1c(CN2CCC(O)(Cn3ccnc3)CC2)[nH]c2c(Cl)cccc12` is 3.6. On the same count and under the same terms, the figure for `Cc1cnccc1N1CCCN(Cc2ccccc2OCCN2CCN(C)CC2)CC1` is 3. Turning to `c1ccc(-c2ccnc(C3CCN(CC45CNCC4C5)CC3)n2)cc1` (stereo unspecified), the logP in series [3] (read-out: logP) turned out to be 3.2. Also, in series [4], the solubility kinetic at 2 h, 200 µM turned out to be 200 µM (≈ 66.9 µg/mL).

As to `CN1CCC(Oc2ccc(NC(=O)c3cn4ccnc4s3)cn2)CC1`, the logP in series [3] (read-out: logP) is 2. Further, the solubility kinetic at 2 h, 200 µM in series [4] worked out at 200 µM (≈ 71.5 µg/mL).

With `O=C(NC1CCN(CCOc2ccc(Cl)cc2)CC1)c1c[nH]c2ccncc2c1=O`, the logP in series [3] is on record as 2.5.

As to `CN1CCN(CCCCNC2CC3CCC(C2)N3Cc2ccccc2)CC1` (stereo unspecified), the logP in series [3] (read-out: logP) is 3.1. Besides, the solubility kinetic at 2 h, 200 µM in series [4] came out at 200 µM (≈ 74.1 µg/mL). For the molecule `CC1(N2CCC2)CCC(NCC2CCN(Cc3ccccc3)C2)CC1` (stereo unspecified), in series [3] (read-out: logP), the logP came to 3.4. On to `CC1CCN(Cc2cccc(C(=O)NCc3ccc(F)c(-c4ccc(CN5CCN[C@H](C)C5)cc4)c3)c2)CC1`, for which, in the series on Plasmodium falciparum [1], the XC50 came to 1460 nM.
